# According to BindingDB's records for doi:10.1016/0960-894X(95)00058-2 (1995):
# Experiments:
# [1] = target: Squalene monooxygenase (Sus scrofa); test: The compound was tested for its inhibitory activity against pig Squalene epoxidase at pH 7.4
# [2] = target: Squalene monooxygenase (Sus scrofa); test: The compound was tested for its inhibitory activity against pig Squalene epoxidase at pH 8.8
structure (smiles),measurement,setting,value
"CC(C)=CCC/C(=C/CC/C(C)=C/CC/C=C(\C)CC/C=C(\C)CCC=C(C)C)CN [6,11,15,19-tetramethyl-2-(4-methyl-3-pentenyl)-(2Z,6E,10E,14E)-2,6,10,14,18-icosapentaen-1-amine]",IC50,[1],109 µM
same,IC50,[2],32 µM
